Residues, ends and D or L forms follow the SMILES beside them.
Columns and labels:
[1] = system: U1 dsRNA binding on the surface of NHEKs; experiment: Surface binding of Alexa 488-labeled U1 dsRNA to NHEKs; type: cell-based, human; conditions: Alexa 488 U1 0.05-10 μg/ml + peptide 2.5 μM, 10 min on ice; fluorometer RFU, n = 3
Method: We also assayed the dynamics of binding of U1 dsRNA on the surface of NHEKs in the presence of LL-34 mutant peptides. NHEKs were exposed to fluorescent Alexa 488–labeled U1 at increasing concentrations (0.05–10 μg/ml) and LL-34 parent peptide, LL-34 I24A, LL-34 L31A, LL-34 K25A, and LL-34 proline at isoleucine position 20 (I20P) for 10 min on ice to allow for surface binding of U1 to cells in the presence of peptides (Fig. 5A).
Figure 5 Biophysical properties of binding of U1 dsRNA to LL-34 peptides and SRB1 protein.A, NHEKs were treated with Alexa 488–labeled U1 dsRNA or a combination of Alexa 488–labeled U1 dsRNA (0.05–10 μg/ml) and LL-34 peptides LL-34 parent, LL-34 I24A, LL-34 K25A, LL-34 L31A, and LL-34 I20P at 2.5 μM as shown. The cells were prechilled on ice for 15 min before the addition of U1 dsRNA and/or LL-34 peptides, and the surface binding of U1 dsRNA was allowed for 10 min. The amount of U1 dsRNA binding to NHEKs was assessed with a fluorometer, and data are represented as relative fluorescence units (RFUs) (n = 3). B, NHEKs were similarly treated with Alexa-labeled U1 dsRNA (1.5 μg/ml) and/or unlabeled U1 dsRNA (15 μg/ml) with the addition of LL-34 parent peptide at 2.5 μM. The experiment was performed on ice for 10 min, and the relative binding of Alexa 488 U1 dsRNA was assessed on a fluorometer and is shown as RFU (n = 3) (∗p < 0.05) one-way ANOVA. C, SAXS spectra of LL-34 peptides LL-34 parent, LL-34 F5A, LL-34 I24A, and LL-34 L31A incubated with U1 dsRNA. The peptide-U1 dsRNA (P/R) ratio is varied at 1 and 2 for all conditions. The U1 dsRNA interhelical spacing (Q) was calculated by the peak position. The domain size (L) was calculated by the full width at half maximum of the first peak. LL-34, 34-amino acid peptide; NHEKs, normal human epidermal keratinocytes; SAXS, small-angle X-ray scattering.

[2] = system: normal human epidermal keratinocytes (NHEKs); experiment: LDH release cytotoxicity assay in keratinocytes; type: cell-based; conditions: minimal concentration giving 50% LDH release by NHEKs
Summary of the method: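 Normal human epidermal keratinocytes were exposed to LL-34 parent and alanine-substituted peptides. Cytotoxicity was read as LDH release in fresh culture supernatants after treatment, using a commercial kit, and reported as the minimal concentration showing toxicity.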

## CC[C@H](C)[C@H](NC(=O)[C@H](CCCCN)NC(=O)[C@H](CCC(=O)O)NC(=O)[C@H](CCCCN)NC(=O)[C@H](CO)NC(=O)[C@H](CCCCN)NC(=O)[C@H](CCCNC(=N)N)NC(=O)[C@H](Cc1ccccc1)NC(=O)[C@H](Cc1ccccc1)NC(=O)[C@H](CC(=O)O)NC(=O)CNC(=O)[C@H](CC(C)C)NC(=O)[C@@H](N)CC(C)C)C(=O)NCC(=O)N[C@@H](CCCCN)C(=O)N[C@@H](CCC(=O)O)C(=O)N[C@@H](Cc1ccccc1)C(=O)N[C@@H](CCCCN)C(=O)N[C@@H](CCCNC(=N)N)C(=O)N[C@H](C(=O)N[C@H](C(=O)N[C@@H](CCC(N)=O)C(=O)N[C@@H](CCCNC(=N)N)C(=O)N[C@H](C(=O)N[C@@H](C)C(=O)N[C@@H](CC(=O)O)C(=O)N[C@@H](Cc1ccccc1)C(=O)N[C@@H](CC(C)C)C(=O)N[C@@H](CCCNC(=N)N)C(=O)N[C@@H](CC(N)=O)C(=O)N[C@@H](CC(C)C)C(=O)N[C@H](C(=O)N1CCC[C@H]1C(=O)N[C@@H](CCCNC(=N)N)C(=O)O)C(C)C)[C@@H](C)CC)C(C)C)[C@@H](C)CC [LL-34—K25A] (H-LLGDFFRKSKEKIGKEFKRIVQRIADFLRNLVPR-OH)
[1]
  Binding of Alexa 488-labeled U1 dsRNA on the NHEK cell surface: enhanced binding of U1 on the cell surface
[2]
  Minimal cytotoxic concentration in NHEK (LD50): 10 µM

From PMC8214221, “Sequence determinants in the cathelicidin LL-37 that promote inflammation via presentation of RNA to scavenger receptors” (The Journal of Biological Chemistry, 2021)
